Values of other authors as cited in US5698219A, “Nanoemulsion of the oil water type, useful as an ophthalmic vehicle and process for the preparation thereof” (Laboratorios Cusi, S.A., priority 1994, dated 1997).

Conditions: EP 0 521 799 A1; benzalkonium chloride at 0.02% (w/v)

Compound | preservative effectiveness when used individually
C[CH2][Hg][S]c1ccccc1C(=O)[O-].[Na+] [thimerosal] | lack of effectiveness
benzalkonium chloride | lack of effectiveness
